The results in this text go back to patent publication US4396613A, “23-Ester derivatives of DMT and method of using same” (Eli Lilly and Company, priority 1981, dated 1983).

Structures are written as SMILES. ≈ marks a conversion by molar mass, not a printed value.

The test system of experiment [1] is Streptococcus pyogenes C203. The experiment is described as follows: experimental infection in mice (ED50). It counts as in vivo. As to conditions: doses given 1 and 4 hours postinfection. As to the method: The 23-ester derivatives of DMT of this invention have shown in vivo antimicrobial activity against experimental bacterial infections caused by gram-positive bacteria. When two doses of test compound were admininstered to mice with experimental infections, the activity observed was measured as an ED50 value [effective dose in mg/kg to protect 50% of the test animals: see Warren Wick, et al., J. Bacteriol. 81, 233-235 (1961)].
^a mg/kg × 2; doses given 1 and 4 hours postinfection

The test system of experiment [2] is Streptococcus pneumoniae Park I. It counts as cell-based. As to conditions: agar dilution, unit assumed. The method, then:
(§1) The MIC's in Table II were determined by standard agar-dilution assays. The MIC's in Table III were obtained using a conventional broth-dilution microtiter test.

Experiment [3] relates to Pasteurella multocida 17E. Description: conventional broth-dilution microtiter test (MIC). It counts as cell-based. As to conditions: bovine isolate, unit assumed. The method, then:
as §1

In the next experiment the test system is Mycoplasma hyorhinis. Description: conventional broth-dilution microtiter test (MIC). It counts as cell-based. As to conditions: unit assumed. As to the method:
as §1

For experiment [4], the system named is Pasteurella multocida 60A. Description: conventional broth-dilution microtiter test (MIC). Format: cell-based. As to conditions: avian isolate, unit assumed. As to the method:
as §1

A further experiment has as its system Mycoplasma gallisepticum. The experiment is described as follows: conventional broth-dilution microtiter test (MIC). As to conditions: unit assumed. It counts as cell-based. The method, then: as §1
The next experiment deals with Streptococcus sp. 80. The experiment is described as follows: conventional broth-dilution microtiter test (MIC). As to conditions: unit assumed. It counts as cell-based. The method, then:
as §1

Another experiment relates to Staphylococcus aureus. The experiment is described as follows: conventional broth-dilution microtiter test (MIC). It counts as cell-based. As to conditions: unit assumed. As to the method: as §1
In experiment [5] the test system is Haemophilus influenzae Holt. The experiment is described as follows: standard agar-dilution assay (MIC). Format: cell-based. As to conditions: ampicillin-sensitive strain, unit assumed. As to the method: as §1
Experiment [6] has as its system Haemophilus influenzae R252. The experiment is described as follows: standard agar-dilution assay (MIC). It counts as cell-based. As to conditions: Haemophilus influenzae R252, ampicillin-resistant strain, unit assumed. As to the method: as §1
Experiment [7] concerns Staphylococcus aureus X1.1. The experiment is described as follows: standard agar-dilution assay (MIC). As to conditions: unit assumed. Format: cell-based. The method, then:
as §1

Experiment [8] relates to Streptococcus Group D X66. Description: standard agar-dilution assay (MIC). Format: cell-based. As to conditions: unit assumed. The method, then:
as §1

The test system of experiment [9] is Staphylococcus aureus S13E. The experiment is described as follows: standard agar-dilution assay (MIC). Format: cell-based. As to conditions: unit assumed. The method, then: as §1
In experiment [10] the test system is Staphylococcus epidermidis EPI2. Description: standard agar-dilution assay (MIC). As to conditions: unit assumed. Format: cell-based. The method, then:
as §1

Another experiment relates to Streptococcus Group 9960. The experiment is described as follows: standard agar-dilution assay (MIC). It counts as cell-based. As to conditions: unit assumed. The method, then: as §1
Experiment [11] relates to Streptococcus pyogenes C203. The experiment is described as follows: standard agar-dilution assay (MIC). It counts as cell-based. As to conditions: unit assumed. The method, then:
as §1

For experiment [12], the system named is Staphylococcus epidermidis EPI1. Description: standard agar-dilution assay (MIC). It counts as cell-based. As to conditions: unit assumed. The method, then:
as §1

For experiment [13], the system named is Staphylococcus aureus X400. The experiment is described as follows: standard agar-dilution assay (MIC). Format: cell-based. As to conditions: Staphylococcus aureus X400, methicillin-resistant strain, unit assumed. As to the method: as §1
^c Methicillinresistant-strain

Experiment [14] has as its system Staphylococcus aureus V41. Description: standard agar-dilution assay (MIC). It counts as cell-based. As to conditions: Staphylococcus aureus V41, penicillin-resistant strain, unit assumed. The method, then:
as §1
^b Penicillinresistant strain

Another experiment relates to Mycoplasma synoviae. The experiment is described as follows: conventional broth-dilution microtiter test (MIC). As to conditions: unit assumed. Format: cell-based. The method, then: as §1

As usually defined, the ED50 is the dose that gives a 50% effect, or the effect in half of the subjects. For `CCC1OC(=O)CC(O)C(C)C(OC2OC(C)C(OC3CC(C)(O)C(O)C(C)O3)C(N(C)C)C2OC(C)=O)C(CC=O)CC(C)C(=O)C=CC(C)=CC1COC(C)=O` (centres unmarked) [Compound 1, 2',23-Di-O-Acetyl-DMT], the median effective dose (ED50) was 212 mg/kg in experiment [1] (C203, oral) and above 20 mg/kg in experiment [1] (C203, sc, subcutaneous). In addition, the MIC came to 0.25 µg/mL (≈ 0.303 µM) in [2]; 6.25 µg/mL (≈ 7.57 µM) in experiment [3]; 3.12 µg/mL (≈ 3.78 µM) against Mycoplasma hyorhinis; 12.5 µg/mL (≈ 15.1 µM) in experiment [4]; 0.39 µg/mL (≈ 0.472 µM) in the experiment on Mycoplasma gallisepticum; 0.78 µg/mL (≈ 0.944 µM) in the experiment with Streptococcus sp. 80. In addition, the MIC amounted to 0.78 µg/mL (≈ 0.944 µM) in the experiment with Staphylococcus aureus; 16 µg/mL (≈ 19.4 µM) in [5]; 16 µg/mL (≈ 19.4 µM) in experiment [6]; 1 µg/mL (≈ 1.21 µM) in [7]; 2 µg/mL (≈ 2.42 µM) in experiment [8]; 2 µg/mL (≈ 2.42 µM) in experiment [9]. In addition, the MIC came to 2 µg/mL (≈ 2.42 µM) in [10]; 1 µg/mL (≈ 1.21 µM) against Streptococcus Group 9960; 1 µg/mL (≈ 1.21 µM) in [11]; 2 µg/mL (≈ 2.42 µM) in [12]; 2 µg/mL (≈ 2.42 µM) in [13]; 1 µg/mL (≈ 1.21 µM) in experiment [14].
As for `CCC(=O)OCC1C=C(C)C=CC(=O)C(C)CC(CC=O)C(OC2OC(C)C(OC3CC(C)(O)C(O)C(C)O3)C(N(C)C)C2O)C(C)C(O)CC(=O)OC1CC` (centres unmarked) [Compound 4, 23-O-Propionyl-DMT], the ED50 was determined as 300 mg/kg in experiment [1] (C203, oral) and 13 mg/kg in experiment [1] (C203, sc, subcutaneous). Besides, the MIC came to 6.25 µg/mL (≈ 7.83 µM) in experiment [3]; 3.12 µg/mL (≈ 3.91 µM) against Mycoplasma hyorhinis; 25 µg/mL (≈ 31.3 µM) in experiment [4]; 0.39 µg/mL (≈ 0.489 µM) in the experiment on Mycoplasma gallisepticum; 0.39 µg/mL (≈ 0.489 µM) in the experiment with Streptococcus sp. 80; 0.78 µg/mL (≈ 0.977 µM) against Staphylococcus aureus. Moreover, the MIC in experiment [5] turned out to be 32 µg/mL (≈ 40.1 µM); in [6], 32 µg/mL (≈ 40.1 µM); in [7], 1 µg/mL (≈ 1.25 µM); in experiment [8], 1 µg/mL (≈ 1.25 µM); in experiment [9], 1 µg/mL (≈ 1.25 µM); in [10], 1 µg/mL (≈ 1.25 µM). Besides, the MIC worked out at 1 µg/mL (≈ 1.25 µM) in the experiment on Streptococcus Group 9960; 0.5 µg/mL (≈ 0.627 µM) in experiment [11]; 1 µg/mL (≈ 1.25 µM) in experiment [12]; 2 µg/mL (≈ 2.51 µM) in experiment [13]; 0.5 µg/mL (≈ 0.627 µM) in experiment [14].
Take `CCC1OC(=O)CC(O)C(C)C(OC2OC(C)C(OC3CC(C)(O)C(O)C(C)O3)C(N(C)C)C2O)C(CC=O)CC(C)C(=O)C=CC(C)=CC1COC(=O)NCCN1CCOCC1` (centres unmarked) [Compound 29]: the MIC in [2] was 0.125 µg/mL (≈ 0.139 µM); against Mycoplasma synoviae, 1.56 µg/mL (≈ 1.74 µM); in experiment [3], 12.5 µg/mL (≈ 13.9 µM); in the experiment with Mycoplasma hyorhinis, 6.25 µg/mL (≈ 6.96 µM); in experiment [4] it was 25 µg/mL (≈ 27.8 µM); in the experiment with Mycoplasma gallisepticum it was 0.39 µg/mL (≈ 0.434 µM). For the same compound, the MIC in the experiment with Streptococcus sp. 80 was 0.78 µg/mL (≈ 0.868 µM); against Staphylococcus aureus, 1.56 µg/mL (≈ 1.74 µM); in experiment [5] it was 16 µg/mL (≈ 17.8 µM); in [6], 16 µg/mL (≈ 17.8 µM); in [7], 1 µg/mL (≈ 1.11 µM); in experiment [8] it was 2 µg/mL (≈ 2.23 µM). The MIC amounted to 2 µg/mL (≈ 2.23 µM) in experiment [9]; 2 µg/mL (≈ 2.23 µM) in experiment [10]; 2 µg/mL (≈ 2.23 µM) with Streptococcus Group 9960; 0.5 µg/mL (≈ 0.557 µM) in [11]; 1 µg/mL (≈ 1.11 µM) in experiment [12]; 4 µg/mL (≈ 4.45 µM) in experiment [13]. For the same compound, the MIC in experiment [14] is 1 µg/mL (≈ 1.11 µM).
Consider `CCC1OC(=O)CC(O)C(C)C(OC2OC(C)C(OC3CC(C)(O)C(O)C(C)O3)C(N(C)C)C2O)C(CC=O)CC(C)C(=O)C=CC(C)=CC1COC(=O)Cc1ccccc1` (centres unmarked) [Compound 10, 23-O-Phenylacetyl-DMT], for which the MIC is 0.03 µg/mL (≈ 0.0349 µM) in [2]; at most 0.048 µg/mL against Mycoplasma synoviae; 1.56 µg/mL (≈ 1.81 µM) in experiment [3]; 1.56 µg/mL (≈ 1.81 µM) with Mycoplasma hyorhinis; 3.12 µg/mL (≈ 3.63 µM) in [4]; at most 0.048 µg/mL in the experiment with Mycoplasma gallisepticum. Further, the MIC stood at 0.097 µg/mL (≈ 0.113 µM) in the experiment with Streptococcus sp. 80; 0.78 µg/mL (≈ 0.907 µM) in the experiment with Staphylococcus aureus; 2 µg/mL (≈ 2.33 µM) in experiment [5]; 2 µg/mL (≈ 2.33 µM) in experiment [6]; 0.25 µg/mL (≈ 0.291 µM) in experiment [7]; 0.5 µg/mL (≈ 0.581 µM) in experiment [8]. Also, the MIC was 0.25 µg/mL (≈ 0.291 µM) in experiment [9]; 0.5 µg/mL (≈ 0.581 µM) in [10]; 0.25 µg/mL (≈ 0.291 µM) in the experiment with Streptococcus Group 9960; 0.125 µg/mL (≈ 0.145 µM) in [11]; 0.5 µg/mL (≈ 0.581 µM) in experiment [12]; 0.5 µg/mL (≈ 0.581 µM) in experiment [13]. Also, the MIC in experiment [14] worked out at 0.5 µg/mL (≈ 0.581 µM).
